Measured values published in patent US4770870A, “Method for reducing pain associated with the administration of 4-sulfido-oxazaphosphorines and 4-sulfoalkylthio-oxazaphorphorines” (Asta Pharma Aktiengesellschaft, priority 1981, dated 1988).
Where a name gives a salt, the structure may show the parent alone. Read-outs that look alike come from different tables or passages of the source.

Legend:
[1] = Acute toxicity (LD50), single intravenous dose, species not stated; conditions: in vivo
[2] = Subchronic toxicity, NMRI-mouse; conditions: same pattern without cysteine, total dosage 3 mmol/kg
[3] = test system: Human mammary-carcinoma; test: Human mammary-carcinoma heterotransplanted to nu/nu mice; type: in vivo, human tumor in mouse (nu/nu); conditions: cyclophosphamide single injection of 100 mg/kg
Experimental: (The experimental procedure was carried out as follows according to: C. O. Polvsen, G. K. Jacobsen, J. Rygaard, The Laboratory Animal in Drug Testing, Editor A. Spiegel, pages 63-73, Fischer-Verlag, Stuttgart, (1973).
(a) Human mammary-carcinoma from operation material of a women's clinic were heterotransplanted to thymusaplastic nu/ny mice. After the 23-25th passage in each case by implantation of a thin tumor section having a diameter of 8-10 mm into the milk ducts after growth of the implants to 0.15-0.25 grams the animals were subjected to therapy and the curative effect determined through measuring the tumor surface.

[4] = mouse, in vivo

Cl [HCl pH 4, hydrochloric acid]
Reaction (+ = reaction, - = no reaction) (rat, in vivo): -
reaction (rat, in vivo): Neither

O=P1(N(CCCl)CCCl)NCCCO1 (centres unmarked) [cyclophosphamide]
LD50 [1]: 244 mg/kg
Approximate threshold concentration inducing venous pain (Table 1, sleeping rat): 30 mg/mL
concentration at which no reaction was induced (sleeping rat): below 30 mg/ml
Reaction (+ = reaction, - = no reaction) (sleeping rat, tail vein infusion): +
deaths of mice [2]: 6 mice
tumor growth [3]: checking of the tumor growth

CC(=O)N[C@@H](CS)C(=O)O [NAC, N-acetyl-cysteine]
prevention of pain induced by mafosfamide lysine salt (5 molar mesna or NAC solution): completely prevented the pain-inducing effect of mafosfamide lysine salt

O=P1(NCCCl)OCCCN1CCCl (centres unmarked) [ifosfamide]
Approximate threshold concentration inducing venous pain (rat, in vivo): > 10 mg/mL
Reaction (+ = reaction, - = no reaction) (rat, in vivo): +
concentration at which no reaction was induced (rat, in vivo): below 10 mg/ml

O=S(=O)([O-])CCS.[Na+]
prevention of pain induced by mafosfamide lysine salt (rat, in vivo): completely prevented the pain-inducing effect of mafosfamide lysine salt

O=P1(N(CCCl)CCCl)NC(SCC(S)CS(=O)(=O)O)CCO1 (centres unmarked) [cyclohexylamine salt, 3-[2-(bis-(2-chloroethyl)-amine-2-oxo-tetrahydro-2H-1,3,2-oxazaphosphorine-4-yl-thio]-2-mercaptopropanesulfonic acid-cyclohexylamine salt]
increase of the LD50 [4]: 2-3 fold
